Assay results reported in ChEMBL document CHEMBL6109072, “Discovery of highly potent dual GSPT1/BRD4 degraders with anti-AML activity” (Eur J Med Chem, 2025).
pIC50: −log10 of the molar value. Activity calls are given as the source filed them. No cut-off for these calls is given here.

How the values were obtained:
MOLM-13 [1] = experiment: Antitumor activity against human MOLM-13 cells expressing GFP-Fluc xenografted in IL2Rg-null NSG mouse assessed as reduction in GFP-positive leukemic cells in spleen at 2.5 mg/kg, ip bid treated for 21 days by flow cytometry; assay type: functional, organism-based; conditions: time 21.0 day
MOLM-13 [2] = experiment: Induction of apoptosis in human MOLM-13 cells assessed as viable cells at 0.1 uM incubated for 6 hrs by Annexin V-APC/7-AAD staining based flow cytometry (reference value: 97.12 %); assay type: functional; conditions: read-out: Activity
MOLM-13 [3] = experiment: Antitumor activity against human MOLM-13 cells expressing GFP-Fluc xenografted in IL2Rg-null NSG mouse assessed as reduction in GFP-positive leukemic cells in bone marrow at 2.5 mg/kg, ip bid treated for 21 days by flow cytometry; assay type: functional, organism-based; conditions: time 21.0 day
MOLM-13 [4] = experiment: Antitumor activity against human MOLM-13 cells expressing GFP-Fluc xenografted in IL2Rg-null NSG mouse assessed as reduction in GFP-positive leukemic cells in peripheral blood at 2.5 mg/kg, ip bid treated for 21 days by flow cytometry; assay type: functional, organism-based; conditions: time 21.0 day
MOLM-13 [5] = experiment: Induction of apoptosis in human MOLM-13 cells assessed as early apoptotic cells at 0.1 uM incubated for 24 hrs by Annexin V-APC/7-AAD staining based flow cytometry (reference value: 0.08 %); assay type: functional
MOLM-13 [6] = experiment: Induction of apoptosis in human MOLM-13 cells assessed as early apoptotic cells at 0.1 uM incubated for 12 hrs by Annexin V-APC/7-AAD staining based flow cytometry (reference value: 0.08 %); assay type: functional
SU-DHL-1 = experiment: Antiproliferative activity against human SU-DHL-1 cells incubated for 3 days by CCK8 assay; assay type: functional, cell-based; conditions: SU-DHL-1, 72 h
MOLM-13 [7] = experiment: Induction of apoptosis in human MOLM-13 cells assessed as late apoptotic cells at 0.1 uM incubated for 24 hrs by Annexin V-APC/7-AAD staining based flow cytometry (reference value: 0.01 %); assay type: functional
MOLM-13 [8] = experiment: Induction of apoptosis in human MOLM-13 cells assessed as viable cells at 0.1 uM incubated for 12 hrs by Annexin V-APC/7-AAD staining based flow cytometry (reference value: 97.12 %); assay type: functional; conditions: read-out: Activity
[9] = Toxicity in IL2Rg-null NSG mouse xenografted with human MOLM-13 cells expressing GFP-Fluc assessed as body weight change at 2.5 mg/kg, ip bid treated for 18 days; assay type: organism-based; conditions: in vivo, 432 h, time 18 day
[10] = target: T1, Protein cereblon/Bromodomain-containing protein 4 (Homo sapiens, UniProt O60885+Q96SW2); experiment: PROTAC activity at CRBN/BRD4 in human MOLM-13 cells assessed as BRD4 degradation at 100 nM incubated for 6 hrs by Western blot analysis; assay type: cell-based
T1 sequence (Q96SW2 whole entry, looked up, other chains not shown): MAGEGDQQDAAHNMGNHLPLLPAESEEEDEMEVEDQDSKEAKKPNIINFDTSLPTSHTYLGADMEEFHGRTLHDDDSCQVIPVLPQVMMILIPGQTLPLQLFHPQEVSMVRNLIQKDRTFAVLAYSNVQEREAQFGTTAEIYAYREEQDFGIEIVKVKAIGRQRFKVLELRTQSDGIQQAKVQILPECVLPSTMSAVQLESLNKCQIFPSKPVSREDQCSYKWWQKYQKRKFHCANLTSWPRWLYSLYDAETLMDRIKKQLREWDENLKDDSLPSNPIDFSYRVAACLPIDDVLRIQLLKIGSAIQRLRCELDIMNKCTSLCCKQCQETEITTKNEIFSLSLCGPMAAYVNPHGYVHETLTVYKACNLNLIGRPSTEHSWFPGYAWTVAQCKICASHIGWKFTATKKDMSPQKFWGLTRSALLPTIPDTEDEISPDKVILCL

[11] = Cytotoxicity in human PBMC cells at 62.5 to 1000 nM; assay type: toxicity, cell-based; conditions: 1 µM, dose 62.5-1000 nM
MOLM-13 [12] = experiment: Induction of apoptosis in human MOLM-13 cells assessed as necrotic cells at 0.1 uM incubated for 6 hrs by Annexin V-APC/7-AAD staining based flow cytometry (reference value: 2.79 %); assay type: functional
NB-4 = experiment: Antiproliferative activity against human NB4 cells incubated for 3 days by CCK8 assay; assay type: functional, cell-based; conditions: NB-4, 72 h
MOLM-13 [13] = experiment: Induction of apoptosis in human MOLM-13 cells assessed as necrotic cells at 0.1 uM incubated for 12 hrs by Annexin V-APC/7-AAD staining based flow cytometry (reference value: 2.79 %); assay type: functional
MOLM-13 [14] = experiment: Induction of apoptosis in human MOLM-13 cells assessed as necrotic cells at 0.1 uM incubated for 24 hrs by Annexin V-APC/7-AAD staining based flow cytometry (reference value: 2.79 %); assay type: functional
Daudi = experiment: Antiproliferative activity against human Daudi cells incubated for 3 days by CCK8 assay; assay type: functional, cell-based; conditions: 72 h
KARPAS-299 = experiment: Antiproliferative activity against human KARPAS-299 cells incubated for 3 days by CCK8 assay; assay type: functional, cell-based; conditions: Homo sapiens, KARPAS-299, 72 h
[15] = target: T2, Protein cereblon/Eukaryotic peptide chain release factor GTP-binding subunit ERF3A (Homo sapiens, UniProt Q96SW2+P15170); experiment: PROTAC activity at CRBN/GSPT1 in human MOLM-13 cells assessed as GSPT1 degradation at 100 nM incubated for 6 hrs by Western blot analysis; assay type: cell-based
Target sequence in this assay (P15170 whole entry, looked up): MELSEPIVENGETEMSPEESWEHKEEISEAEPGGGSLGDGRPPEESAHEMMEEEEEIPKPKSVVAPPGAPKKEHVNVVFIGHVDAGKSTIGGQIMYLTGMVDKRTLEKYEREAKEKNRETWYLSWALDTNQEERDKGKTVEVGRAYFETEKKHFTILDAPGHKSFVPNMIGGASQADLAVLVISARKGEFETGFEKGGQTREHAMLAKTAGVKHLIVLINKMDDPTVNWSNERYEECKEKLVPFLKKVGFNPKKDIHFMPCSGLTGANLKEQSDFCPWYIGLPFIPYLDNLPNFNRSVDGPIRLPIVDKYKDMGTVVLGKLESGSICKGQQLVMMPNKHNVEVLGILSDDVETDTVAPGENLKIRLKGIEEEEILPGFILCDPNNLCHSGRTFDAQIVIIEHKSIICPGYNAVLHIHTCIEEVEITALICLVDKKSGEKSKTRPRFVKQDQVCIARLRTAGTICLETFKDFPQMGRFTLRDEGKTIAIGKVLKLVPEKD
Target sequence in this assay (Q96SW2 whole entry, looked up): as the sequence (Q96SW2 whole entry, looked up, other chains not shown) above

MOLM-13 [16] = experiment: Induction of apoptosis in human MOLM-13 cells assessed as late apoptotic cells at 0.1 uM incubated for 12 hrs by Annexin V-APC/7-AAD staining based flow cytometry (reference value: 0.01 %); assay type: functional
MOLM-13 [17] = experiment: Induction of cell cycle arrest in human MOLM-13 cells assessed as accumulation at G1 phase at 0.1 uM incubated for 6 to 12 hrs by PI staining based flow cytometry; assay type: functional; conditions: time 6-12 hrs
[18] = target: T2, Protein cereblon/Eukaryotic peptide chain release factor GTP-binding subunit ERF3A; experiment: PROTAC activity at CRBN/GSPT1 in human MOLM-13 cells assessed as GSPT1 degradation incubated for 24 hrs by Western blot analysis; assay type: cell-based
Target sequence in this assay (Q96SW2 whole entry): as the sequence (Q96SW2 whole entry, looked up, other chains not shown) above
Target sequence in this assay (P15170 whole entry): as the sequence (P15170 whole entry, looked up) above

[19] = target: T1, Protein cereblon/Bromodomain-containing protein 4; experiment: PROTAC activity at CRBN/BRD4 in human MOLM-13 cells assessed as BRD4 degradation incubated for 24 hrs by Western blot analysis; assay type: cell-based
MOLM-13 [20] = experiment: Antitumor activity against human MOLM-13 cells expressing GFP-Fluc xenografted in IL2Rg-null NSG mouse assessed as prolongation of median survival time at 2.5 mg/kg, ip bid treated for 21 days; assay type: functional, organism-based; conditions: time 21.0 day
MOLM-13 [21] = experiment: Induction of apoptosis in human MOLM-13 cells assessed as viable cells at 0.1 uM incubated for 24 hrs by Annexin V-APC/7-AAD staining based flow cytometry (reference value: 97.12 %); assay type: functional; conditions: read-out: Activity
[22] = Toxicity in IL2Rg-null NSG mouse xenografted with human MOLM-13 cells expressing GFP-Fluc assessed as drug tolerance at 2.5 mg/kg, ip bid treated for 18 days; assay type: organism-based; conditions: in vivo, 432 h, time 18 day
MOLM-13 [23] = experiment: Induction of apoptosis in human MOLM-13 cells assessed as late apoptotic cells at 0.1 uM incubated for 6 hrs by Annexin V-APC/7-AAD staining based flow cytometry (reference value: 0.01 %); assay type: functional
MOLM-13 [24] = experiment: Antitumor activity against human MOLM-13 cells expressing GFP-Fluc xenografted in IL2Rg-null NSG mouse assessed as reduction in leukemia burden at 2.5 mg/kg, ip bid treated for 21 days by bioluminescence imaging based analysis; assay type: functional, organism-based; conditions: time 21.0 day
HL-60 = experiment: Antiproliferative activity against human HL-60 cells incubated for 3 days by CCK8 assay; assay type: functional, cell-based; conditions: HL-60, 72 h
Raji = experiment: Antiproliferative activity against human Raji cells incubated for 3 days by CCK8 assay; assay type: functional, cell-based; conditions: 72 h
MOLM-13 [25] = experiment: Induction of apoptosis in human MOLM-13 cells assessed as early apoptotic cells at 0.1 uM incubated for 6 hrs by Annexin V-APC/7-AAD staining based flow cytometry (reference value: 0.08 %); assay type: functional
MOLM-13 [26] = experiment: Antiproliferative activity against human MOLM-13 cells incubated for 3 days by CCK8 assay; assay type: functional, cell-based; conditions: MOLM-13, 72 h
[27] = target: T1, Protein cereblon/Bromodomain-containing protein 4; experiment: PROTAC activity at CRBN/BRD4 in human MOLM-13 cells assessed as BRD4 degradation at 1 uM incubated for 24 hrs by Western blot analysis; assay type: cell-based
MOLM-13 [28] = experiment: Antitumor activity against human MOLM-13 cells expressing GFP-Fluc xenografted in IL2Rg-null NSG mouse assessed as reduction in spleen weight at 2.5 mg/kg, ip bid treated for 21 days; assay type: functional, organism-based; conditions: time 21.0 day
THP-1 = experiment: Antiproliferative activity against human THP-1 cells incubated for 3 days by CCK8 assay; assay type: functional, cell-based; conditions: THP-1, 72 h
MOLM-13 [29] = experiment: Antiproliferative activity against human MOLM-13 cells assessed as cell viability at 0.1 uM incubated for 3 days by CCK8 assay relative to control; assay type: functional; conditions: MOLM-13, 72 h, time 3 day, read-out: Activity
OCI-AML-3 = experiment: Antiproliferative activity against human OCI-AML-3 cells incubated for 3 days by CCK8 assay; assay type: functional, cell-based; conditions: Homo sapiens, OCI-AML-3, 72 h

What does the source list for `Cc1sc2c(c1C)C(c1ccc(Cl)cc1)=N[C@@H](CC(=O)N1CCN(CC3CCN(c4ccc5c(c4)C(=O)N(C4CCC(=O)NC4=O)C5=O)CC3)CC1)c1nnc(C)n1-2` (some centres not stated)?
Activity (MOLM-13 [1]): Active; viability at 0.1 µM (MOLM-13 [2]): 78.7%; Activity (MOLM-13 [3]): Active; Activity (MOLM-13 [4]): Active; Activity (MOLM-13 [5]): 67.5%; Activity (MOLM-13 [6]): 39.9%; pIC50 (SU-DHL-1): 8.20; Activity (MOLM-13 [7]): 21.1%; viability at 0.1 µM (MOLM-13 [8]): 57.8%; Activity [9]: Non-toxic; Activity [10]: Active; Activity [11]: Non-toxic; Activity (MOLM-13 [12]): 0.36%; pIC50 (NB-4): 8.57; Activity (MOLM-13 [13]): 0.26%; Activity (MOLM-13 [14]): 1.18%; pIC50 (Daudi): 8.05; pIC50 (KARPAS-299): 7.59; Activity [15]: Active; Activity (MOLM-13 [16]): 2.01%; Activity (MOLM-13 [17]): Active; DC50 [18]: 5.25 nM; DC50 [19]: 0.48 nM; Activity (MOLM-13 [20]): Active; viability at 0.1 µM (MOLM-13 [21]): 10.2%; Activity [22]: Non-toxic; Activity (MOLM-13 [23]): 0.3%; Activity (MOLM-13 [24]): Active; pIC50 (HL-60): 8.09; pIC50 (Raji): 8.00; Activity (MOLM-13 [25]): 20.64%; pIC50 (MOLM-13 [26]): 8.07; Activity [27]: Active; Activity (MOLM-13 [28]): Active; Compound Activity Consistent With Decreased Leukemic Infiltration; pIC50 (THP-1): 7.75; viability at 0.1 µM (MOLM-13 [29]): 7.02%; pIC50 (OCI-AML-3): 7.84
